Legend:
Experiment in all cases: B1 Post-emergence efficacy, glasshouse pot test
Type in all cases: in vivo
Conditions in all cases: post-emergence application, 1000 g/ha, evaluated after 13 days
[1] = system: Ipomoea hederacea (IPOHE)
Experimental: (§1) B1 Post-Emergence Efficacy Seeds of a variety of test species are sown in standard soil in pots:—Solanum nigrum (SOLNI), Amaranthus retoflexus (AMARE), Setaria faberi (SETFA), Alopecurus myosuroides (ALOMY), Echinochloa crus-galli (ECHCG), Ipomoea hederacea (IPOHE), Lolium perenne (LOLPE). After 8 days cultivation (post-emergence) under controlled conditions in a glasshouse (at 24/16° C., day/night; 14 hours light; 65% humidity), the plants are sprayed with an aqueous spray solution derived from the formulation of the technical active ingredient in acetone/water (50:50) solution containing 0.5% Tween 20 (polyoxyethelyene sorbitan monolaurate, CAS RN 9005-64-5). Compounds are applied at 1000 g/ha. The test plants are then grown in a glasshouse under controlled conditions in a glasshouse (at 24/16° C., day/night; 14 hours light; 65% humidity) and watered twice daily. After 13 days, the test is evaluated for the percentage damage caused to the plant. The biological activities are assessed on a five point scale (5=80-100%; 4=60-79%; 3=40-59%; 2=20-39%; 1=0-19%). A blank value in the table is indicative that the compound was not tested on that species.

[2] = system: Lolium perenne (LOLPE)
Experimental: as §1

[3] = system: Amaranthus retoflexus (AMARE)
Experimental: as §1

[4] = system: Solanum nigrum (SOLNI)
Experimental: as §1

[5] = system: Setaria faberi (SETFA)
Experimental: as §1

[6] = system: Echinochloa crus-galli (ECHCG)
Experimental: as §1

| Compound | IPOHE: percentage damage caused to the plant (five point scale) [1] | LOLPE: percentage damage caused to the plant (five point scale) [2] | AMARE: percentage damage caused to the plant (five point scale) [3] | SOLNI: percentage damage caused to the plant (five point scale) [4] | SETFA: percentage damage caused to the plant (five point scale) [5] | ECHCG: percentage damage caused to the plant (five point scale) [6] |
| --- | --- | --- | --- | --- | --- | --- |
| Cn1nc(C2CC2)c(O)c(-c2c(C(F)(F)F)ccc(Cl)c2OCc2ccccc2)c1=O [Compound 1.070] | 5 (5=80-100%) | 5 (5=80-100%) | 5 (5=80-100%) | 5 (5=80-100%) | 5 (5=80-100%) | 5 (5=80-100%) |
| CCn1nc(C)c(O)c(-c2c(F)ccc(Cl)c2OCc2ccccc2)c1=O [Compound 1.037] | 5 (5=80-100%) | 5 (5=80-100%) | 5 (5=80-100%) | 5 (5=80-100%) | 4 (4=60-79%) | 5 (5=80-100%) |
| Cc1nn(C)c(=O)c(-c2ccccc2OCc2ccccc2)c1O [Compound 1.002] | 1 (1=0-19%) | 1 (1=0-19%) | 4 (4=60-79%) | 5 (5=80-100%) | 1 (1=0-19%) | 1 (1=0-19%) |
| Cc1nn(C)c(=O)c(-c2c(F)ccc(F)c2OCc2ccccc2)c1O [Compound 1.016] | 5 (5=80-100%) | 4 (4=60-79%) | 5 (5=80-100%) | 5 (5=80-100%) | 5 (5=80-100%) | 5 (5=80-100%) |
| Cc1nn(C2CC2)c(=O)c(-c2c(F)ccc(Cl)c2OCc2ccccc2)c1O [Compound 1.044] | 5 (5=80-100%) | 5 (5=80-100%) | 5 (5=80-100%) | 5 (5=80-100%) | 5 (5=80-100%) | 5 (5=80-100%) |
| Cc1nn(C)c(=O)c(-c2c(Cl)ccc(F)c2OCc2ccccc2)c1O [Compound 1.014] | 5 (5=80-100%) | 3 (3=40-59%) | 4 (4=60-79%) | 5 (5=80-100%) | 5 (5=80-100%) | 4 (4=60-79%) |
| Cn1nc([S+](C)[O-])c(O)c(-c2c(Cl)ccc(Cl)c2OCc2ccccc2)c1=O (stereo not drawn) [Compound 1.083] | 5 (5=80-100%) | 2 (2=20-39%) | 1 (1=0-19%) | 5 (5=80-100%) | 3 (3=40-59%) | 1 (1=0-19%) |
| CN(C)c1nn(C)c(=O)c(-c2c(F)ccc(Cl)c2OCc2ccccc2)c1O [Compound 1.085] | 5 (5=80-100%) | 5 (5=80-100%) | 5 (5=80-100%) | 5 (5=80-100%) | 3 (3=40-59%) | 4 (4=60-79%) |
| Cc1ccc(Cl)c(OCc2ccccc2)c1-c1c(O)c(C)nn(C)c1=O [Compound 1.076] | 5 (5=80-100%) | 4 (4=60-79%) | 2 (2=20-39%) | 5 (5=80-100%) | 5 (5=80-100%) | 5 (5=80-100%) |
| Cn1nc(C2CC2)c(O)c(-c2c(Cl)ccc(Cl)c2OCc2ccccc2)c1=O [Compound 1.009] | 5 (5=80-100%) | 5 (5=80-100%) | 5 (5=80-100%) | 5 (5=80-100%) | 5 (5=80-100%) | 5 (5=80-100%) |
| Cc1nn(C)c(=O)c(-c2c(Cl)ccc(Cl)c2OCc2ccc(Cl)c(Cl)c2)c1O [Compound 1.005] | 5 (5=80-100%) | 5 (5=80-100%) | 5 (5=80-100%) | 5 (5=80-100%) | 5 (5=80-100%) | 5 (5=80-100%) |
| CCc1nn(C)c(=O)c(-c2c(C(F)(F)F)ccc(Cl)c2OCc2ccccc2)c1O [Compound 1.072] | 5 (5=80-100%) | 2 (2=20-39%) | 2 (2=20-39%) | 5 (5=80-100%) | 5 (5=80-100%) | 4 (4=60-79%) |
| Cn1nc(C(F)(F)F)c(O)c(-c2c(F)ccc(Cl)c2OCc2ccccc2)c1=O [Compound 1.074] | 5 (5=80-100%) | 5 (5=80-100%) | 5 (5=80-100%) | 5 (5=80-100%) | 5 (5=80-100%) | 5 (5=80-100%) |
| COc1ccc(COc2c(Cl)ccc(Cl)c2-c2c(O)c(C)nn(C)c2=O)cc1 [Compound 1.067] | 5 (5=80-100%) | 5 (5=80-100%) | 2 (2=20-39%) | 5 (5=80-100%) | 5 (5=80-100%) | 5 (5=80-100%) |
| Cn1nc(S(C)(=O)=O)c(O)c(-c2c(Cl)ccc(Cl)c2OCc2ccccc2)c1=O [Compound 1.082] | 3 (3=40-59%) | 1 (1=0-19%) | 1 (1=0-19%) | 5 (5=80-100%) | 2 (2=20-39%) | 1 (1=0-19%) |
| CCc1nn(C)c(=O)c(-c2c(Cl)ccc(Cl)c2OCc2ccccc2)c1O [Compound 1.007] | 5 (5=80-100%) | 4 (4=60-79%) | 5 (5=80-100%) | 5 (5=80-100%) | 5 (5=80-100%) | 5 (5=80-100%) |
| Cn1nc([S+](C)[O-])c(O)c(-c2c(F)ccc(Cl)c2OCc2ccccc2)c1=O (stereo not drawn) [Compound 1.080] | 5 (5=80-100%) | 2 (2=20-39%) | 2 (2=20-39%) | 5 (5=80-100%) | 1 (1=0-19%) | 1 (1=0-19%) |
| CSc1nn(C)c(=O)c(-c2c(F)ccc(Cl)c2OCc2ccccc2)c1O [Compound 1.084] | 5 (5=80-100%) | 4 (4=60-79%) | 3 (3=40-59%) | 5 (5=80-100%) | 2 (2=20-39%) | 1 (1=0-19%) |
| Cc1nn(C)c(=O)c(-c2cccc(Cl)c2OCc2ccccc2)c1O [Compound 1.003] | 5 (5=80-100%) | 5 (5=80-100%) | 4 (4=60-79%) | 5 (5=80-100%) | 3 (3=40-59%) | 5 (5=80-100%) |
| Cc1nn(C)c(=O)c(-c2c(Cl)cccc2OCc2ccccc2)c1O [Compound 1.068] | 4 (4=60-79%) | 2 (2=20-39%) | 3 (3=40-59%) | 5 (5=80-100%) | 4 (4=60-79%) | 4 (4=60-79%) |

Source: patent US9944608B2, “Herbicidal pyridazinone derivatives” (Syngenta Participations AG, priority 2014, dated 2018)
